Earlier results as cited in patent US6730813B2, “Method for producing n-(phosphonomethyl) glycine” (Monsanto Technology LLC, priority 2000, dated 2004).
Where two headings read alike, the source gives them in different places.

Compound: O=C(O)CNCP(=O)(O)O [glyphosate, N-(phosphonomethyl)glycine]
- solubility in organic solvents (organic solvents, compared with water): much lower
- solubility in water (5° C.): 0.8%
- solubility in water (20° C.): 1.1%
- solubility in water (95° C.): 6.5%
